Results: patent publication US20230406839A1, “Bifunctional Compounds And Methods Of Using The Same” (The General Hospital Corporation, priority 2020, published 2023)

Assays:
HeLa cells [1] = assay: Azide metabolic labeling of HeLa cells, detected with DBCO-FAM in a fluorescent plate reader; format: cell-based; details: AzNAM 25-125 μM for 20 hours, then DBCO-FAM 10 μM for 1 hour, 96-well plate reader (FIG. 1)
Procedure: Initially, cells are cultured in a suitable culture vessel such that their level of confluency at the time of addition of the azide-modified sugar AzNAM is not more than 80%.
In particular, HeLa cells were plated in 6-well plates (2.5×10^4 cells/well) and incubated for 48 hours in DMEM-10% FBS medium in a standard 5% CO2 atmosphere. Medium from each well was removed, and each well was washed with 2 ml of phosphate buffered saline (PBS), and fresh DMEM-FBS (1 ml) added. Subsequently, varying amounts of AzNAM (solubilized in DMSO) were added to the wells in small (10 μl) volumes to produce the desired final concentrations in the range 25-125 μM. After an additional 20 hours incubation, the medium in each well was removed, and the wells were washed with 2 ml of PBS, followed by addition of 1 ml of PBS. Then, a fluorescent bio-orthogonally azide-reactive reagent DBCO-FAM (Broadpharm) was directly added to each well to produce a final concentration of 10 μM.
Plates with added DBCO-FAM were protected from bright light and incubated for 1 hour at room temperature. Supernatants in each well were then removed, and each well was washed twice with 2 ml of PBS. […] After pelleting and washing in PBS, cells were resuspended in 150 μl of PBS and counted. Defined numbers in 50 μl volumes in a 96-well Blackwell plate (Corning) were assayed for fluorescence in a fluorescent plate reader (Tecan).

HeLa cells [2] = assay: Azide metabolic labeling of HeLa cells, detected with DBCO-FAM by flow cytometry; format: cell-based; details: AzNAM 125 μM for 20 hours, versus cells receiving no azide-modified sugar (FIG. 2)
Procedure: In separate trials, HeLa cells were added to wells of a 12-well plate at 10,000 cells/well, and cultured for 72 hours under normal conditions. The wells were then washed with 1 ml of PBS, and 0.5 ml of DMEM-10% FBS was added. AzNAM was then added to a final concentration of 125 μM, with cells receiving no azide-modified sugar as controls. After 20 hours, cells were harvested with CellStripper (250 μl/well), washed with PBS, and subjected to flow analysis.

azido-N-acetylmannosamine [AzNAM] was tested, and the “cell-associated fluorescence after reaction with DBCO-FAM” value (HeLa cells [1]) was “cell-associated fluorescence increased as a function of the levels of AzNAM” and the “flow cytometry peak shift after reaction with DBCO-FAM” value (HeLa cells [2]) was “marked and well-demarcated peak shifts were observed”.
